Measured values reported in PubChem BioAssay AID248 (DTP/NCI, 2004).
Where “and” joins values, the source holds several entries; their conditions need not be identical. Equal values may be shown once. Toxic doses and inconclusive results are not listed. No stated cut-off is given here; in the data, active means T/C of 150% or more; inactive means T/C below 125%.

Tested on: L1210 leukemia ip in BDF1 mice, survival T/C
Assay: NCI In Vivo Anticancer Drug Screen. Data for tumor model L1210 Leukemia (intraperitoneal) in B6D2F1 (BDF1) mice
Conditions: endpoint: mean survival time, higher = longer survival
Procedure, shortened: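 Antitumor effect is assessed in tumor-bearing animals. Survival in the compound arm is compared with a vehicle-dosed control arm and expressed as their quotient.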

[1] = dose: 100.0 mg/kg/injection, schedule: Q04DX003 (ip), vehicle: saline
[2] = dose: 200.0 mg/kg/injection, schedule: Q04DX003 (ip), vehicle: saline
[3] = dose: 50.0 mg/kg/injection, schedule: Q01DX001 (ip), vehicle: carboxymethylcellulose (CMC)
[4] = dose: 100.0 mg/kg/injection, schedule: Q01DX001 (ip), vehicle: carboxymethylcellulose (CMC)
[5] = dose: 200.0 mg/kg/injection, schedule: Q01DX001 (ip), vehicle: carboxymethylcellulose (CMC)
[6] = dose: 400.0 mg/kg/injection, schedule: Q01DX001 (ip), vehicle: carboxymethylcellulose (CMC)
[7] = dose: 100.0 mg/kg/injection, schedule: Q04DX003 (ip), vehicle: saline with Tween-80
[8] = dose: 200.0 mg/kg/injection, schedule: Q04DX003 (ip), vehicle: saline with Tween-80
[9] = dose: 400.0 mg/kg/injection, schedule: Q04DX003 (ip), vehicle: saline with Tween-80
[10] = dose: 100.0 mg/kg/injection, schedule: Q04DX003 (ip), vehicle: Klucel (hydroxypropylcellulose) (HPC)
[11] = dose: 100.0 mg/kg/injection, schedule: Q04DX002 (ip), vehicle: Klucel (hydroxypropylcellulose) (HPC)
[12] = dose: 200.0 mg/kg/injection, schedule: Q04DX002 (ip), vehicle: Klucel (hydroxypropylcellulose) (HPC)
[13] = dose: 50.0 mg/kg/injection, schedule: Q01DX009 (ip), vehicle: Klucel (hydroxypropylcellulose) (HPC)
[14] = dose: 100.0 mg/kg/injection, schedule: Q01DX009 (ip), vehicle: Klucel (hydroxypropylcellulose) (HPC)
[15] = dose: 200.0 mg/kg/injection, schedule: Q01DX009 (ip), vehicle: Klucel (hydroxypropylcellulose) (HPC)
[16] = dose: 200.0 mg/kg/injection, schedule: Q04DX003 (ip), vehicle: Klucel (hydroxypropylcellulose) (HPC)
[17] = dose: 400.0 mg/kg/injection, schedule: Q04DX003 (ip), vehicle: Klucel (hydroxypropylcellulose) (HPC)

Measured: T/C

CC(=O)OC1CCC2CCCCC2/C1=N\O (configuration not stated)
inactive: dose: 50.0 mg/kg/injection, schedule: Q04DX003 (ip), vehicle: saline 112 % of control | [1] 95 % of control | [2] 97 % of control

CCOP(=O)(Nc1ccc2c(c1)Cc1c-2cc(Cl)c(NC(C)=O)c1Cl)OCC
inactive: [3] 97 % of control | [4] 92 % of control | [5] 94 % of control | [6] 92 % of control

CCOC(=O)C[n+]1ccccc1C
inactive: dose: 50.0 mg/kg/injection, schedule: Q04DX002 (ip), vehicle: saline 90 % of control | dose: 100.0 mg/kg/injection, schedule: Q04DX002 (ip), vehicle: saline 97 % of control | dose: 200.0 mg/kg/injection, schedule: Q04DX002 (ip), vehicle: saline 93 % of control

Cc1cc(C)c(N2C(=O)CC(Sc3ccccc3N)C2=O)c(C)c1 (configuration not stated)
inactive: [7] 105 % of control | [8] 109 % of control | [9] 98 % of control

NC(=S)Nc1cccc(Cl)c1
inactive: dose: 25.0 mg/kg/injection, schedule: Q04DX003 (ip), vehicle: Klucel (hydroxypropylcellulose) (HPC) 96 % of control | dose: 50.0 mg/kg/injection, schedule: Q04DX003 (ip), vehicle: Klucel (hydroxypropylcellulose) (HPC) 100 % of control | [10] 106 % of control

O=C(O)c1cccc2cccc(-c3c4ccc(=O)c(O)c-4oc4c(O)c(O)ccc34)c12
inactive: [7] 91 % of control | [8] 92 % of control | [9] 89 % of control

O=C(N=c1scc(-c2ccc(Br)cc2)n1-c1cccc2ccccc12)c1ccccc1F
inactive: dose: 25.0 mg/kg/injection, schedule: Q01DX009 (ip), vehicle: saline with Tween-80 89 % of control | dose: 50.0 mg/kg/injection, schedule: Q01DX009 (ip), vehicle: saline with Tween-80 87 % of control | dose: 100.0 mg/kg/injection, schedule: Q01DX009 (ip), vehicle: saline with Tween-80 93 % of control

O=C1C(=O)c2ccccc2C(O)=C1c1ccccc1
inactive: [3] 114 % of control

NC(=O)C1C2C=CC(C2)C1C(N)=O (configuration not stated)
inactive: [7] 96 % of control | [8] 91 % of control | [9] 98 % of control

N#CCOc1cc(Cl)c(Cl)cc1Cl
inactive: [11] 107 % of control | [12] 97 % of control

O=C(CS(=O)(=O)C/C(=N\Nc1ccc([N+](=O)[O-])cc1)c1ccccc1)c1ccccc1
inactive: [1] 101 % of control | [2] 113 % of control | dose: 400.0 mg/kg/injection, schedule: Q04DX003 (ip), vehicle: saline 104 % of control

O=C1C(c2c[nH]c3ccc(Br)cc23)=Nc2ccc([N+](=O)[O-])cc21
inactive: dose: 200.0 mg/kg/injection, schedule: Q01DX001 (ip), vehicle: saline 96 % of control | dose: 400.0 mg/kg/injection, schedule: Q01DX001 (ip), vehicle: saline 93 % of control

COc1ccc([N+](=O)[O-])cc1NC(=O)N(C1CCCCC1)C1CCCCC1
inactive: [13] 96 % of control | [14] 93 % of control | [15] 96 % of control

C[N+](C)(C)CCP(=O)([O-])O
inactive: dose: 100.0 mg/kg/injection, schedule: Q01DX009 (ip), vehicle: saline 101 % of control | dose: 200.0 mg/kg/injection, schedule: Q01DX009 (ip), vehicle: saline 93 % of control | dose: 400.0 mg/kg/injection, schedule: Q01DX009 (ip), vehicle: saline 95 % of control

CC(=O)OC1CC2(O)C3CCC4CC(O)CCC4(C)C3CCC2(C)C1c1ccc(=O)oc1 (configuration not stated)
inactive: dose: 100.0 mg/kg/injection, schedule: Q01DX001 (sc), vehicle: steriod suspending solution 107 % of control | dose: 200.0 mg/kg/injection, schedule: Q01DX001 (sc), vehicle: steriod suspending solution 101 % of control | dose: 400.0 mg/kg/injection, schedule: Q01DX001 (sc), vehicle: steriod suspending solution 107 % of control

Cc1cc(OC(=O)Nc2cc(Cl)ccc2C)c(C(C)C)cc1Cl
inactive: dose: 100.0 mg/kg/injection, schedule: Q01DX001 (ip), vehicle: Klucel (hydroxypropylcellulose) (HPC) 90 % of control | [14] 102 % of control and 88 % of control | [11] 96 % of control | [10] 103 % of control | dose: 200.0 mg/kg/injection, schedule: Q01DX001 (ip), vehicle: Klucel (hydroxypropylcellulose) (HPC) 91 % of control | [15] 97 % of control | [12] 94 % of control | [16] 94 % of control | dose: 400.0 mg/kg/injection, schedule: Q01DX001 (ip), vehicle: Klucel (hydroxypropylcellulose) (HPC) 88 % of control | dose: 400.0 mg/kg/injection, schedule: Q01DX009 (ip), vehicle: Klucel (hydroxypropylcellulose) (HPC) 94 % of control and 86 % of control | dose: 400.0 mg/kg/injection, schedule: Q04DX002 (ip), vehicle: Klucel (hydroxypropylcellulose) (HPC) 91 % of control | [17] 96 % of control

OCCNc1nc2cc(Cl)ccc2c2ccc(Cl)cc12
inactive: [14] 91 % of control | [10] 96 % of control | [15] 99 % of control | [16] 93 % of control | [17] 96 % of control

O=[As](O)(CC(O)c1ccccc1)c1ccccc1 (configuration not stated)
inactive: dose: 6.25 mg/kg/injection, schedule: Q01DX001 (ip), vehicle: saline with Tween-80 97 % of control | dose: 12.5 mg/kg/injection, schedule: Q01DX001 (ip), vehicle: saline with Tween-80 103 % of control

Cc1ccc(NC(=O)Nc2ccccc2Cl)c(C)c1
inactive: [4] 93 % of control | [5] 101 % of control | [6] 98 % of control

CC1CCc2nc(C#N)c(N)nc2C1 (configuration not stated)
inactive: [13] 103 % of control | [14] 97 % of control | [15] 106 % of control
